Here are results for eleven compounds from US20240156973A1, “OSTEOTROPIC COMPOSITIONS AND USES THEREOF” (Purdue Research Foundation, priority 2021, published 2024).

Assay [1] concerns male C57BL/6 mice with surgically induced femoral fracture. Briefly: Surgically induced femoral fracture, X-ray and ex vivo µCT of callus. The format is in vivo. The procedure: FIG. 14A are representative μCT images of femurs 3 weeks post-surgery from 12-week-old C57BL/6 male mice that underwent a surgically created fracture and received 3×/wk injection of targeted SRT1720 (SRT1720-Aspartic Acid Oligopeptide described herein; SQ, 6 mg/kg/dose) or vehicle control.
FIG. 14B is a bar graph showing μCT analysis of the mineralized callus volume (BV/TV) for each treatment group ([…], 2, 6, and 20 mg/kg/dose),
FIG. 14C is a bar graph showing μtCT analysis of the callus trabecular thickness (Tb.Th) within the callus region for each treatment group.
(§1) Weekly X-rays were used to examine healing progression. Prior to euthanasia, mice underwent behavioral testing to measure evoked pain behaviors, Upon euthanasia, ex vivo μCT imaging (FIGS. 14A-14C) and analysis was completed to assess fracture callus size and composition.

The test system is the same in assay [2]. Briefly: Von Frey testing of evoked pain behavior after femoral fracture. The format is in vivo. Here is the method:
FIG. 15 is bar graphs for 12-week-old C57BL/6 male mice that underwent a surgically created fracture and received 3×/wk injection of targeted SRT1720 (SQ, 2, 6, and 20 mg/kg/dose) or vehicle control.
as §1

Assay [3] addresses T1, Thrombopoietin Receptor (TPOR) (Homo sapiens, UniProt P40238).
T1 sequence (P40238 26-491 limits assumed): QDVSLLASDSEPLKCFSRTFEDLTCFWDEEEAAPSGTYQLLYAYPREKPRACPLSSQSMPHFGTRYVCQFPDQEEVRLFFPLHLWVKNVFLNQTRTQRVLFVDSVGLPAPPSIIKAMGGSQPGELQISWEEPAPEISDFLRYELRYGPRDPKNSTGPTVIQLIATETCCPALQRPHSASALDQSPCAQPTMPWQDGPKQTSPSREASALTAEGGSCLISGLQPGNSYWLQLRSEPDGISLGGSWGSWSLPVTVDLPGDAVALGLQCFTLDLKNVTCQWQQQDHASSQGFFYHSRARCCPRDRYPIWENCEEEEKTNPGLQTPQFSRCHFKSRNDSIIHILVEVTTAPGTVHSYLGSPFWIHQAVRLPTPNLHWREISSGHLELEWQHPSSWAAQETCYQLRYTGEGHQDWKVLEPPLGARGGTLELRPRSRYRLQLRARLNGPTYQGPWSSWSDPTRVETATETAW
The settings on record: TPOR binding; cysteine-containing peptides in cyclic form; cited from earlier work.

In assay [4] the test system is female Swiss Webster mice with midshaft femur fractures. Briefly: Midshaft femur fracture healing, micro-CT of fracture callus. The class given is in vivo. As to conditions: three weeks. Here is the method: Fracture healing was assessed using micro-CT (Scanco Medical Ag or PerkinElmer). […] Morphometric parameters were quantified in an ROI that included just the fracture callus. […] Statistical analysis was performed using a one-way analysis of variance (ANOVA) and a Dunnett's post-hoc analysis with significance reported at the P value of 0.05. All animal experiments were performed in accordance with protocols approved by Purdue University's Institutional Animal Care and Use Committee (IACUC).

[5] abbreviates: 6 mg/kg, 3x/week, 3 weeks, p<0.05.
Where [6] appears, read: all doses (2, 6, 20 mg/kg, 3x/week), 3 weeks post-surgery.

`O=C(Nc1ccccc1-c1cn2c(CN3CCNCC3)csc2n1)c1cnc2ccccc2n1` [SRT1720]: the bone healing entry in assay [1] (6 mg/kg, 3x/week, 3 weeks) is recorded as “accelerated bone healing”; in assay [1] (all doses (2, 6, 20 mg/kg, 3x/week, 3 weeks)), “improved healing”. The mineralized callus volume in assay [1] (setting [5]) is listed as “significant increase in mineralized callus volume”. The “paw withdrawal thresholds (evoked responses to tactile stimulus)” value in assay [2] (setting [5]) is “more robust and significant improvement”; in assay [2] (setting [6]), “increased paw withdrawal thresholds”.

For `N[C@@H](CCC(=O)O)C(=O)N[C@@H](CCC(=O)O)C(=O)N[C@@H](CCC(=O)O)C(=O)N[C@@H](CCC(=O)O)C(=O)N[C@@H](CCC(=O)O)C(=O)N[C@@H](CCC(=O)O)C(=O)N[C@@H](CCC(=O)O)C(=O)N[C@@H](CCC(=O)O)C(=O)N[C@@H](CCC(=O)O)C(=O)N[C@@H](CCC(=O)O)C(=O)N[C@@H](CSSCCOC(=O)N1CCN(Cc2csc3nc(-c4ccccc4NC(=O)c4cnc5ccccc5n4)cn23)CC1)C(=O)O` [targeted SRT1720], in assay [2] (setting [6]), the “paw withdrawal thresholds (evoked responses to tactile stimulus)” value is given as “improved mN forces”.

With GGCADGPTLREWISFCGG [AF12193], in assay [3], the IC50 is 60 nM.

Regarding GGCTLREWLHGGFCGG [AF12192], the IC50 in assay [3] was 200 nM.

For GNADGPTLRQWLEGRRPKN [AF12359], in assay [3], the IC50 is 66 nM.

GRVBDQIMLSLGG [AF12191]: the IC50 in assay [3] is 20000 nM.

Regarding IEGPTLRQWLAARA [AF12505], the IC50 in assay [3] was 2 nM.

With “IEGPTLRQWLAARA-K-β-Ala-IEGPTLRQWLAARA [AF13948]”, the IC50 in assay [3] is 0.5 nM.

Consider “Ile-Glu-Gly-Pro-Thr-Leu-Arg-Gln-Npa-Leu-Ala-Ala-Arg-Sar [TMP]”, for which the “bone volume, dose-response shape” value in assay [4] (untargeted TMP daily 0.1, 1 and 10 nmol s.c.) was “parabolic dosing window”. Further, the “callus bone volume/total volume, dose-response shape” value in assay [4] (untargeted TMP daily 3.3, 33 and 330 nmol/kg s.c.) is on record as “parabolic dosing window”. In assay [4] (untargeted TMP daily s.c.), the “dose with maximum response on callus mineralization (bone volume)” value was 1 nmol/day and the “dose with maximum response on callus mineralization (bone volume/total volume)” value amounted to 33 nmol/kg.

As for LAIEGPTLRQWLHGNGPDT [AF12434], the IC50 in assay [3] is 20 nM.

For TIKGFTLRQWLKSREHTS [AF12405], in assay [3], the IC50 is 50 nM.
